In US20150158914A1, “PEPTIDES, CONSTRUCTS AND USES THEREFOR” (priority 2010, published 2015):
“Also recorded” adds a separate entry of the source. Ends that are not written are not given here. * marks the point of attachment. FITC = O=C1OC2(c3ccc(O)cc3Oc3cc(O)ccc32)c2ccc(NC(=S)*)cc21

Tests used:
[1] = test system: adherent TK1 T cells; experiment: Peptide uptake by attached TK1 cells; assay type: cell-based
Description: As above, the lymphocytic cell line TK1 in suspension was not able to take up the X-protein cell-permeable peptide aa 16-22. Once activated, circulating lymphocytes have the ability to adhere to the vascular endothelium, to attach to antigen presenting cells, and to attach to and move through the extracellular matrix. The fact that adherent monocytes took up the peptide raised the possibility that TK1 T cells attached to a surface might also be able to take up the X-protein cell permeable peptide aa 16-22. TK1 cells were adhered to MAdCAM-1-coated glass slides or left to bind directly to the surface of the glass slides. Cells attached to the slides were incubated with the X-protein cell-permeable peptide aa 16-22 for 3 h in RPMI without FCS. Virtually all TK1 cells attached via α4β7 to MAdCAM-1 took up the peptide, whereas only 50 to 60% of cells directly attached to the glass slide took up the peptide (FIG. 27).

[2] = test system: C32 melanoma cell line; experiment: Peptide uptake by other cell lines; assay type: cell-based, human; settings: C32, 3 h
Description: (§1) The cells were then incubated overnight at 37° and 5% CO2, and then washed thrice with media without FCS. The X-protein peptide in 250 μl of appropriate media without FCS was added to the cells at a final concentration of 10 μM, and the slides incubated for 3 h at 37° C. and 5% CO2. The cells were washed with PBS, fixed with 4% formaldahyde in PBS for 30 min, and washed thrice with PBS. […] The slides were dried overnight in the dark, and examined by microscopy by using a Nikon E600 fluorescent microscope. Photos were taken using Nikon ACT-1 software. For further examination, slides were then examined by confocal microscopy using a Leica TCS-SP2 confocal microscope.
(§2) The X-protein cell-permeable peptide aa 16-22 was tested for its ability to be taken up by other mammalian cell lines including the human C32 melanoma, DU145 prostate carcinoma, TK1 T cell lymphoma, H441 lung carcinoma, Rin-m5f rat pancreatic islet tumor and Cos-1/7 green monkey kidney cell lines. TK1 cells are suspension cells whereas all other cell lines are adherent cells. Cells were incubated with the fluoresceinated X-protein cell-permeable peptide 16-22 for 3 h in medium appropriate for that cell line in the absence of FCS. The HepG2 cell line was used as a positive control. The X-protein peptide was able enter all adherent cell lines regardless of type or source of the cell (FIGS. 22 and 23).

[3] = test system: H441 lung carcinoma cell line; experiment: Peptide uptake by other cell lines; assay type: cell-based, human; settings: H441, 3 h
Description: as §1, §2

[4] = test system: DU145 prostate carcinoma cell line; experiment: Peptide uptake by other cell lines; assay type: cell-based, human; settings: DU145, 3 h
Description: as §1, §2

[5] = test system: X-protein; experiment: Non-reducing SDS-PAGE/Western blot of X-protein tertiary structure in HepG2 transfectants; assay type: cell-based, hepatitis B virus; settings: peptide added thrice over 48 h, non-reducing conditions
Description: The inventors investigated how the oligomerization domain peptide (aa 16-35) antagonized X-protein-mediated function. The aim was to determine whether the peptide disrupted the tertiary structure of the X-protein. HepG2 cells were transfected with either the pCDNA3.1-HBX, pCDNA3-HBX Myc or pCDNA3-GFP plasmids and were treated thrice over 48 h with the oligomerization domain peptide (aa 16-35). Control transfectants were not treated with peptide. The nuclear subfraction was resolved by SDS-PAGE using non-reducing loading buffer to keep the disulphide bonding of the X-protein intact. The proteins were transferred onto a PVDF membrane, and probed with a mouse antihuman X-protein primary antibody, followed by a secondary goat anti-mouse HRP-conjugated antibody. […] Transfectants not treated with peptide expressed higher order forms of the X-protein, including the dimeric form at ˜34 kDa, and apparently even higher order structures (FIG. 11). In contrast, cells transfected with pCDNA3.1-HBX and pCDNA3-HBX Myc and treated with the oligomerization domain peptide expressed monomeric forms at ˜17 kDa and ˜21 kDa, respectively.

Substance	uptake by adherent TK1 T cells ([1]; adhered to MAdCAM-1-coated glass slides or to the slides directly)	TK1 cells that took up the peptide ([1]; attached via α4β7 to MAdCAM-1, 3 h)	TK1 cells that took up the peptide ([1]; directly attached to the glass slide, 3 h)	entry into cells [2]	uptake of the peptide, cells positive ([2]; no FCS)	entry into cells [3]	uptake of the peptide, cells positive ([3]; no FCS)	entry into cells [4]	uptake of the peptide, cells positive ([4]; no FCS)	overall level of the X-protein [5]	tertiary structure of the X-protein (dimeric and higher order forms) ([5]; listed as oligomerization domain peptide (aa 16-35))
FITC-LCLRPVG ({FITC}-LCLRPVG) [Peptide 16-22]	took up	Virtually all	50 to 60 % of cells	able to enter	> 90 % cells positive	taken up less efficiently	60 to 70 % cells positive	able to enter	> 90 % cells positive		
FITC-Acp-LCLRPVGAESRGRPVSGPFG [Peptide 16-35]										did not decrease the overall level of the X-protein	Disruption of the tertiary structure of the X-protein; also recorded: disrupts the tertiary structure of the X-protein, preventing dimerization and the formation of higher order structures
